Results: PubChem BioAssay AID316 (DTP/NCI, 2004)
“And” between values parts separate entries of the source, which are not always exact repeats. Identical values can stand only once. Toxic doses and inconclusive results are not listed. Rule for the calls: active = survival T/C of 150% or more; inactive = T/C below 125% in these data.

System: P1534 leukemia ip, CD2F1 mice, survival T/C
Assay: NCI In Vivo Anticancer Drug Screen. Data for tumor model P1534 Leukemia (intraperitoneal) in CD2F1 (CDF1) mice
Settings: higher = longer survival
Procedure: The antitumor activity of compounds was measured in mice bearing transplantable tumors. Survival or tumor size were measured and the results are expressed as the measurement made in the treated group (T) divided by the measurement made in the vehicle treated control group (C). The tumor model used in this assay is P1534 Leukemia (intraperitoneal) in CD2F1 (CDF1) mice

[1] = endpoint: mean survival time, dose: 125.0 mg/kg/injection, schedule: Q01DX010 (ip), vehicle: saline
[2] = endpoint: mean survival time, dose: 250.0 mg/kg/injection, schedule: Q01DX010 (ip), vehicle: saline
[3] = endpoint: mean survival time, dose: 500.0 mg/kg/injection, schedule: Q01DX010 (ip), vehicle: saline
[4] = endpoint: mean survival time, dose: 62.5 mg/kg/injection, schedule: Q01DX010 (ip), vehicle: saline
[5] = endpoint: mean survival time, dose: 25.0 mg/kg/injection, schedule: Q01DX010 (ip), vehicle: saline
[6] = endpoint: mean survival time, dose: 50.0 mg/kg/injection, schedule: Q01DX010 (ip), vehicle: saline
[7] = endpoint: mean survival time, dose: 8.0 mg/kg/injection, schedule: Q01DX010 (ip), vehicle: saline
[8] = endpoint: mean survival time, dose: 16.0 mg/kg/injection, schedule: Q01DX010 (ip), vehicle: saline
[9] = endpoint: mean survival time, dose: 32.0 mg/kg/injection, schedule: Q01DX010 (ip), vehicle: saline
[10] = endpoint: mean survival time, dose: 10.0 mg/kg/injection, schedule: Q01DX010 (ip), vehicle: saline
[11] = endpoint: mean survival time, dose: 100.0 mg/kg/injection, schedule: Q01DX010 (ip), vehicle: saline
[12] = endpoint: mean survival time, dose: 20.0 mg/kg/injection, schedule: Q01DX010 (ip), vehicle: saline
[13] = endpoint: mean survival time, dose: 40.0 mg/kg/injection, schedule: Q01DX010 (ip), vehicle: saline
[14] = endpoint: mean survival time, dose: 80.0 mg/kg/injection, schedule: Q01DX010 (ip), vehicle: saline

Measured: T/C

CC(O)CCc1ccc(O)cc1 (configuration not stated)
inactive: endpoint: mean survival time, dose: 18.8 mg/kg/injection, schedule: Q01DX010 (ip), vehicle: saline 100 % of control | endpoint: mean survival time, dose: 37.5 mg/kg/injection, schedule: Q01DX010 (ip), vehicle: saline 92 % of control | endpoint: mean survival time, dose: 75.0 mg/kg/injection, schedule: Q01DX010 (ip), vehicle: saline 92 % of control | endpoint: mean survival time, dose: 150.0 mg/kg/injection, schedule: Q01DX010 (ip), vehicle: saline 100 % of control

CCOC(N)=O
inactive: [1] 100 % of control | [2] 112 % of control and 100 % of control | [3] 112 % of control and 100 % of control | endpoint: mean survival time, dose: 1000.0 mg/kg/injection, schedule: Q01DX010 (ip), vehicle: saline 88 % of control and 93 % of control

O=C(NO)c1cccnc1
inactive: endpoint: mean survival time, dose: 270.0 mg/kg/injection, schedule: Q01DX010 (ip), vehicle: water 113 % of control | endpoint: mean survival time, dose: 400.0 mg/kg/injection, schedule: Q01DX010 (ip), vehicle: water 107 % of control | endpoint: mean survival time, dose: 600.0 mg/kg/injection, schedule: Q01DX010 (ip), vehicle: water 107 % of control and 120 % of control

OCC1OC(n2cnc3c(Cl)ncnc32)C(O)C1O (configuration not stated)
inactive: [4] 94 % of control and 100 % of control | [1] 100 % of control | [2] 111 % of control | [3] 105 % of control and 88 % of control

CCCCCCCCCCCCCCCCC(C(=O)O)C(O)(CC(=O)O)C(=O)O (configuration not stated)
inactive: [5] 88 % of control

COc1ccc2cc3[n+](cc2c1O)CCc1cc2c(cc1-3)OCO2
inactive: endpoint: mean survival time, dose: 12.5 mg/kg/injection, schedule: Q01DX010 (ip), vehicle: saline 111 % of control | [5] 123 % of control | [6] 115 % of control

NNC(=O)c1cnccn1
inactive: endpoint: mean survival time, dose: 40.0 mg/kg/injection, schedule: Q01DX010 (ip), vehicle: water 121 % of control | endpoint: mean survival time, dose: 80.0 mg/kg/injection, schedule: Q01DX010 (ip), vehicle: water 110 % of control and 97 % of control

[N-]=[N+]=CC(=O)NCC(=O)NN
inactive: endpoint: mean survival time, dose: 100.0 mg/kg/injection, schedule: Q01DX010 (ip), vehicle: water 103 % of control | endpoint: mean survival time, dose: 200.0 mg/kg/injection, schedule: Q01DX010 (ip), vehicle: water 120 % of control | endpoint: mean survival time, dose: 300.0 mg/kg/injection, schedule: Q01DX010 (ip), vehicle: water 123 % of control

CN1CC[C@]23c4c5ccc(O)c4O[C@H]2C(=O)CC[C@H]3[C@H]1C5
inactive: endpoint: mean survival time, dose: 4.0 mg/kg/injection, schedule: Q01DX010 (ip), vehicle: saline 100 % of control | [7] 100 % of control | [8] 107 % of control and 100 % of control | [9] 103 % of control

O=C(NCCCC(NC(=O)OCc1ccccc1)C(=O)NCCCNCCCCNCCCNC(=O)C(CCCNC(=O)OCc1ccccc1)NC(=O)OCc1ccccc1)OCc1ccccc1 (configuration not stated)
inactive: endpoint: mean survival time, dose: 2.5 mg/kg/injection, schedule: Q01DX010 (ip), vehicle: saline 100 % of control | [10] 100 % of control

Cc1nc(N)nc(N)c1-c1ccc(Cl)c(Cl)c1
inactive: endpoint: median survival time, dose: 0.75 mg/kg/injection, schedule: Q01DX009 (ip), vehicle: Klucel (hydroxypropylcellulose) (HPC) 102 % of control | endpoint: median survival time, dose: 1.5 mg/kg/injection, schedule: Q01DX009 (ip), vehicle: Klucel (hydroxypropylcellulose) (HPC) 119 % of control | endpoint: median survival time, dose: 3.0 mg/kg/injection, schedule: Q01DX009 (ip), vehicle: Klucel (hydroxypropylcellulose) (HPC) 107 % of control

C/C=C1/CN(C)C2Cc3c([nH]c4ccccc34)C(c3cc4[nH]c5c(c4cc3OC)CCN3CC4CC(C(C)O)C3C5(C(=O)OC)C4)CC1C2C(=O)OC (configuration not stated)
inactive: endpoint: mean survival time, dose: 5.0 mg/kg/injection, schedule: Q01DX010 (ip), vehicle: water 98 % of control | endpoint: mean survival time, dose: 10.0 mg/kg/injection, schedule: Q01DX010 (ip), vehicle: other 103 % of control | endpoint: mean survival time, dose: 10.0 mg/kg/injection, schedule: Q01DX010 (ip), vehicle: water 96 % of control | endpoint: mean survival time, dose: 15.0 mg/kg/injection, schedule: Q01DX010 (ip), vehicle: water 94 % of control | endpoint: mean survival time, dose: 20.0 mg/kg/injection, schedule: Q01DX010 (ip), vehicle: other 92 % of control | endpoint: mean survival time, dose: 20.0 mg/kg/injection, schedule: Q01DX010 (ip), vehicle: water 107 % of control | endpoint: mean survival time, dose: 30.0 mg/kg/injection, schedule: Q01DX010 (ip), vehicle: other 94 % of control | endpoint: mean survival time, dose: 40.0 mg/kg/injection, schedule: Q01DX010 (ip), vehicle: other 92 % of control

CN(C)[C@@H]1C(=O)C(C(N)=O)=C(O)[C@@]2(O)C(=O)C3=C(O)c4c(O)cccc4C[C@H]3C[C@@H]12
inactive: endpoint: mean survival time, dose: 3.75 mg/kg/injection, schedule: Q01DX010 (ip), vehicle: saline 107 % of control | endpoint: mean survival time, dose: 7.5 mg/kg/injection, schedule: Q01DX010 (ip), vehicle: saline 107 % of control | endpoint: mean survival time, dose: 15.0 mg/kg/injection, schedule: Q01DX010 (ip), vehicle: saline 100 % of control | endpoint: mean survival time, dose: 30.0 mg/kg/injection, schedule: Q01DX010 (ip), vehicle: saline 103 % of control and 100 % of control

COc1ccc2c(c1OC)CN1CCc3cc4c(cc3C1C2)OCO4 (configuration not stated)
inactive: [6] 107 % of control | [11] 92 % of control | endpoint: mean survival time, dose: 200.0 mg/kg/injection, schedule: Q01DX010 (ip), vehicle: saline 88 % of control | endpoint: mean survival time, dose: 400.0 mg/kg/injection, schedule: Q01DX010 (ip), vehicle: saline 100 % of control

CNCC(O)(C(=O)O)C(=O)O
inactive: [6] 103 % of control | [11] 96 % of control

Cn1c(N)nc2nc[nH]c2c1=S
inactive: [10] 100 % of control | [12] 100 % of control | [13] 96 % of control | [14] 110 % of control

c1ccc(CNc2ncnc3[nH]ncc23)cc1
inactive: [7] 100 % of control | [8] 110 % of control | [9] 120 % of control and 90 % of control | endpoint: mean survival time, dose: 64.0 mg/kg/injection, schedule: Q01DX010 (ip), vehicle: saline 105 % of control and 110 % of control

CC1CCOS(=O)O1 (configuration not stated)
inactive: [10] 103 % of control | [12] 100 % of control | [13] 100 % of control

C[C@]12C=CC(=O)C=C1CC[C@@H]1[C@@H]2C(=O)C[C@@]2(C)[C@H]1CC[C@]2(O)C(=O)CO
inactive: endpoint: mean survival time, dose: 3.13 mg/kg/injection, schedule: Q01DX010 (sc), vehicle: steriod suspending solution 99 % of control | endpoint: mean survival time, dose: 6.25 mg/kg/injection, schedule: Q01DX010 (sc), vehicle: steriod suspending solution 95 % of control | endpoint: mean survival time, dose: 10.0 mg/kg/injection, schedule: Q01DX005 (sc), vehicle: steriod suspending solution 105 % of control and 109 % of control and 100 % of control | endpoint: mean survival time, dose: 12.5 mg/kg/injection, schedule: Q01DX010 (sc), vehicle: steriod suspending solution 88 % of control | endpoint: mean survival time, dose: 50.0 mg/kg/injection, schedule: Q01DX005 (sc), vehicle: steriod suspending solution 107 % of control and 108 % of control and 110 % of control | endpoint: mean survival time, dose: 100.0 mg/kg/injection, schedule: Q01DX005 (sc), vehicle: steriod suspending solution 108 % of control and 99 % of control and 100 % of control | endpoint: mean survival time, dose: 200.0 mg/kg/injection, schedule: Q01DX005 (sc), vehicle: steriod suspending solution 86 % of control and 102 % of control | endpoint: mean survival time, dose: 250.0 mg/kg/injection, schedule: Q01DX005 (sc), vehicle: steriod suspending solution 90 % of control and 93 % of control

CC(=O)Nc1c(Cl)cc2c(c1Cl)Cc1cc([N+](=O)[O-])ccc1-2
inactive: endpoint: mean survival time, dose: 15.6 mg/kg/injection, schedule: Q01DX010 (ip), vehicle: saline 107 % of control | endpoint: mean survival time, dose: 31.3 mg/kg/injection, schedule: Q01DX010 (ip), vehicle: saline 107 % of control | [4] 107 % of control and 100 % of control | [1] 107 % of control

C[C@@H](N)[C@@H](O)c1ccccc1
inactive: endpoint: mean survival time, dose: 0.39 mg/kg/injection, schedule: Q01DX010 (ip), vehicle: saline 103 % of control | endpoint: mean survival time, dose: 0.78 mg/kg/injection, schedule: Q01DX010 (ip), vehicle: saline 100 % of control | endpoint: mean survival time, dose: 1.56 mg/kg/injection, schedule: Q01DX010 (ip), vehicle: saline 100 % of control | endpoint: mean survival time, dose: 3.13 mg/kg/injection, schedule: Q01DX010 (ip), vehicle: saline 103 % of control

CCN(CC)CCNc1ccc(C)c2sc3ccccc3c(=O)c12
inactive: [12] 103 % of control | [13] 103 % of control | [14] 107 % of control

C=C1c2[nH]c3ccccc3c2CN2CCC1/C(=C/C)C2 (configuration not stated)
inactive: endpoint: mean survival time, dose: 0.13 mg/kg/injection, schedule: Q01DX010 (ip), vehicle: saline 96 % of control | endpoint: mean survival time, dose: 0.25 mg/kg/injection, schedule: Q01DX010 (ip), vehicle: saline 93 % of control | endpoint: mean survival time, dose: 0.5 mg/kg/injection, schedule: Q01DX010 (ip), vehicle: saline 96 % of control | endpoint: mean survival time, dose: 1.0 mg/kg/injection, schedule: Q01DX010 (ip), vehicle: saline 100 % of control

CC1CCC2(NC1)OC1CC3C4CCC5CC(OC6OC(CO)C(OC7OC(CO)C(O)C(OC8OCC(O)C(O)C8O)C7OC7OC(CO)C(O)C(O)C7O)C(O)C6O)CCC5(C)C4CCC3(C)C1C2C (configuration not stated)
inactive: endpoint: mean survival time, dose: 5.0 mg/kg/injection, schedule: Q01DX010 (sc), vehicle: steriod suspending solution 100 % of control | endpoint: mean survival time, dose: 10.0 mg/kg/injection, schedule: Q01DX010 (sc), vehicle: steriod suspending solution 100 % of control
